One may read the melting point as the temperature, or range, at which the solid turns liquid. `COc1cc(C)c(C=CC(C)=CC=O)cc1C` returned a melting point of 90 to 92 °C.
The value for `Cc1nc(-c2ccccc2)ncc1CBr` was 65 to 66 °C.
As for `CC(=O)Nc1nc(N)c2ncn(C3OC(C(O)C(=O)O)C(O)C3O)c2n1` (stereo not given), the figure is 295 °C; as for `COc1cc(OC(C)(C)C(=O)O)c(-c2cccs2)cc1C=O`, 183 to 184 °C; as for `O=C(/C=C/C=C/c1ccc(Br)cc1)NCCCC(=O)NO`, 173 to 175 °C.
The value for `O=C(C1CSC(c2cccnc2)N1)N1CCN(c2ncccn2)CC1` (stereo not given) was 156 to 159 °C; that for `N#CC=C(N)c1ccsc1` was 67 to 69.5 °C; that for `Cc1ccc(N2CCN(Cc3cnc(N)nc3N)CC2)cc1` was 248 to 250 °C.
In the case of `CC(C)CNC(=O)[C@H]1C[C@H](C(=O)OC(C)(C)C)N(C(=O)CNC(=O)Nc2cccc(C(=O)O)c2)[C@@H]1c1ccccc1F` (racemic), the melting point worked out at 160 °C.
The value for `Cc1ccc(CNc2nc(Nc3cccc(N4CCOCC4)c3)nc(OCC(F)(F)F)n2)o1` was 130 to 134 °C; that for `CCOCc1nc2c(N)nc3c(c2n1CC(C)(C)OCCS(C)(=O)=O)CCCC3` was 150 to 153 °C; that for `COc1ccc(CC(=O)NCC(OC)OC)cc1OC` was 60 to 63 °C.
The value for `CCOP(=O)(OCC)C1CNc2ccc(C(F)(F)F)cc2C1` (stereo not given) was 112 °C; that for `Cc1ccc(C(=O)N(C(C)C)C(C)C)c(F)c1C1=NC(C)(C(C)C)C(=O)N1` (stereo not given) was 205 to 210 °C; that for `NCC1CCc2[nH]c3cc(Cl)c(Cl)cc3c2C1` (stereo not given) was 156 to 158 °C.
Molecule `N#Cc1ccc(-c2ccc(C(=O)CCC(=O)O)cc2)cc1` returned a melting point of 191 to 193 °C.
As for `CCN(CC1OCCO1)c1c([N+](=O)[O-])cc(S(C)(=O)=O)cc1[N+](=O)[O-]`, the melting point fell in the range of 125 to 127 °C.
The value for `COc1cc(C)c(S(=O)(=O)c2ccccc2C)cc1OC` was 126 to 128 °C; that for `CCOC(=O)c1ccc(N)c(C(CCNC(=O)OC(C)(C)C)=NOC(C)=O)c1` was 130 to 135 °C; that for `N#Cc1ccc(-c2cc(F)c(F)c(OC3SCC(O)C(O)C3O)c2)cn1` (stereo not given) was 173 °C.
As for `C/C(=C\c1ccc(C=O)cc1)c1ccc2c(c1)C(C)(C)CCC2(C)C`, the figure is 140 to 141 °C; as for `CON(Cc1ccc(F)cc1)C(=O)c1nc2n(c(=O)c1OCc1ccccc1)CCOC2(C)C`, 141 °C.
As for `COc1cc2[nH]cc(-c3cc4c(Cl)c(F)cnc4[nH]3)c2nc1OC`, the figure is 283 to 284 °C; as for `O=C1NCc2ccc(-c3cccc4cc(Cc5cccc(C(F)(F)F)c5)sc34)cc21`, 151 to 152 °C; as for `O=c1oc(-c2ccccc2)cc(O)c1C(Sc1ccccc1)c1ccc2ccccc2c1` (stereo not given), 98 to 101 °C.
For the molecule `CCCCCCCCOc1ccc(-c2ccc(C(=O)O[C@@H](C)C(=O)OCCCC)cc2)cc1`, the melting point came out at 51 °C.
The value for `O=c1c2cn[nH]c2nc2n1CCS2` was over 300 °C; that for `CC(=O)Nc1cc(C(C)(C)C)c(SC2=C(O)CC(CCc3ccc(O)cc3)(C3CCCC3)OC2=O)cc1C` (racemic) was 181 °C.
The value for `COc1nc(NC(=O)NS(=O)(=O)c2cscc2C)nc(OC)n1` was 154 to 156 °C; that for `O=C(Nc1cccc(C(=O)Nc2nnn[nH]2)c1)NC1N=C(c2ccccc2F)c2ccccc2N(CC(=O)N2CC3CCC(CC3)C2)C1=O` (racemic) was 193 to 196 °C; that for `CCOC(=O)c1c[nH]c2ccc(Cc3ccccc3)cc2c1=O` was 265 to 270 °C.
As for `CC(=O)c1ccc(-n2c(C)ccc2-c2ccc(S(C)(=O)=O)cc2)cc1`, the figure is 179 to 180 °C.
For the molecule `Cc1cc(-n2cnnn2)cc2ccoc12`, the melting point worked out at 118 °C.
Regarding `CCCc1c(OCCCOc2cccc3c2CCCC3)ccc2c1OC(CCC(=O)OC)(CCC(=O)N1CCCC1)CC2=O` (stereo not given), the melting point lay in the range of 106 to 107 °C.
The value for `CN1C(=O)C2(COc3cc4c(cc32)OCCO4)c2c(NC(=O)C3CCC3)cccc21` (stereo not given) was 234 to 236 °C; that for `CCN1C(=O)C(C)(C)C(=O)N(C)c2cc(CN(CCn3ccc4occc4c3=O)Cc3cccnc3COC)ccc21` was 123 to 125 °C; that for `Cn1c(C(F)(F)F)ccc(-c2c(Cl)cc(Cl)c3oc(C(Br)(Br)Br)cc23)c1=O` was 225 to 227 °C.
The molecule `CC(C)C(=O)Nc1ccn2nc(-c3ccccc3)c(-c3ccc(=O)n(C(C)C)n3)c2c1` displayed a melting point of 199 to 200 °C.
The value for `CC1(CN2CCC(=O)CC2)Cn2cc([N+](=O)[O-])nc2O1` (stereo not given) was 124 to 126 °C; that for `CCCCNS(=O)(=O)c1ccc2[nH]c(=O)c(=O)[nH]c2c1` was 257 to 262 °C.
As for `Cc1cc2c(cc1C)-n1c(C)nnc1C=C(c1ccc(-n3c(C)nc4cnccc43)cc1)N2`, the figure is 294 to 296 °C; as for `Cn1nc(S(C)=O)c(=O)c2ccccc21` (stereo not given), 187 to 189 °C.
As for `O=[N+]([O-])c1cccnc1Nc1ccc2c(c1)COC2`, the figure is 146 to 147 °C.
Molecule `O=c1oc(-c2ccccc2)cc(O)c1SCc1ccc(OCc2ccccc2)cc1` had a melting point of 185 to 186 °C.
As for `Cc1ccc([N+](=O)[O-])c(C)c1CO`, the figure is 94.5 to 96.1 °C; as for `O=C(O)/C=C\C(=O)NCC(=O)N1c2ccccc2N(Cc2ccccc2)C(=O)[C@H]2CCC[C@H]21` (relative stereo), 207 to 209 °C.
In turn, `CC(=O)OCCCc1nc(-c2ccc(Cl)cc2)co1` yielded a melting point of 37 to 37.5 °C.
As for `COc1ccc(OC)c2c1C[C@](O)(CC#N)CC2=O`, the figure is 160 to 162 °C; as for `COc1cc(C(=O)n2ccnc2)cc([N+](=O)[O-])c1OC`, 136 to 137 °C.
As for `CCCCC[C@H]1CC[C@H](CCC2CCC(c3ccc(O)cc3)(c3ccc(O)cc3)CC2)CC1`, the figure is 203 to 204 °C; as for `COc1ccc(CCN(C)CCCCc2ccc(NC(=O)c3cccc4c(=O)c5cc(F)ccc5sc34)cc2)cc1OC`, 145 °C; as for `Oc1ccc2c(c1)OC=C(CN1CCN(C(c3ccc(F)cc3)c3ccc(F)cc3)CC1)O2`, 190 °C.
As for `Cc1cc(SC(C)C)c(NC(=O)CCCSc2nc3cccc(C(F)(F)F)c3o2)c(SC(C)C)n1`, the figure is 135 to 136 °C.
In turn, `O=C(NCc1ccccn1)OC1Cc2ccccc2N(S(=O)(=O)c2ccc(Cl)cc2)C1` (stereo not given) came in with a melting point of 106 to 110 °C.
For the molecule `CCOC(=O)CC/C=C(\C)c1sccc1Br`, the melting point was in the range of 62 to 64 °C.
As for `COC(=O)C1CCSC(C)(C)C(=O)N1` (stereo not given), the figure is 172 to 174 °C; as for `COc1ccc(Cl)cc1-c1c(N)c(=O)[nH]c2cc(Cl)c(Cl)cc12`, over 300 °C; as for `Cc1ccc(S(=O)(=O)CCOc2ccccc2OCCS(=O)(=O)c2ccc(C)cc2)cc1`, 95 to 96 °C.
`COC1CC(NC(=O)C(F)(F)F)C(OC)C(C)O1` (stereo not given): the melting point fell in the range of 55 to 60 °C.
As for `CSc1cc(Oc2cccc(C(F)(F)F)c2)nc(C(=O)Nc2ccccc2)c1`, the figure is 115 to 119 °C; as for `CNCC1Cc2cc(-c3ccccc3)cc(-c3cccc(F)c3)c2O1` (stereo not given), over 250 °C; as for `Clc1ccc(N=Cc2ccccc2)cc1Cl`, 62 to 65 °C.
The value for `C#CCN1CCCc2ccc(OC(=O)Nc3ccc(Cl)cc3)cc21` was 160 °C; that for `CCC(C(C)=CC(CNC(=O)Cc1cccnc1)=NO)[N+](=O)[O-]` (stereo not given) was 140 to 141 °C; that for `Cc1oc(C=Cc2cccc(Cl)c2)nc1CC(=O)O` was 214 to 215 °C.
The molecule `CC(C)(C)OC(=O)N1CCC(c2nc3cc(-c4ccc(C(F)(F)F)cc4)ccc3o2)CC1` registered a melting point of 166 to 169 °C.
As to `O=C1CC(c2cccc(Cl)c2)c2cc(C(=O)c3ccc([N+](=O)[O-])cc3)ccc2N1` (stereo not given), the melting point was 147 °C.
In turn, `COc1cc(N(C)C)c(Cl)cc1C(=O)NC1CCN(Cc2ccc(Cl)cc2)C1` (stereo not given) returned a melting point of 172 to 173 °C.
As for `CC1(C)CCC(C)(C)c2c(OCc3ccc(C(F)(F)F)cc3)cc(C(O)C#Cc3ccc(C(=O)O)cc3)cc21` (stereo not given), the figure is 222 °C; as for `CCCCC1=NC(NC(=O)C2(NC(=O)CCC(C)C)CCCC2)C(=O)N(Cc2ccccn2)c2ccccc21` (stereo not given), 63 to 67 °C; as for `Oc1cc(Br)nnc1-c1ccc(Cl)cc1`, 262 to 264 °C.
Turning to `NC(=O)C1(CCCNC2CC2)c2ccccc2-c2ccccc21`, the melting point lay within 163 to 165 °C.
Molecule `N#Cc1ccc(-c2ccc(OS(N)(=O)=O)c(Cl)c2)cc1Cn1cncn1` returned a melting point of 155 to 158 °C.
In the case of `Cc1cncc2cc(S(N)(=O)=O)oc12`, the melting point fell in the range of 180 to 182 °C.
The value for `O=C1Nc2cccnc2N(C(=O)CN2CCCCC2CN2CCOCC2)c2ccccc21` (stereo not given) was 203 to 205 °C; that for `O=C(O)CCC(=O)c1ccc(Oc2ccc(NC(=O)c3ccc(Cl)c(Cl)c3)cc2F)cc1` was 205 to 208 °C.
The value for `CCCCN1CCN(CCCC)C2SC(=C3C(=O)CC(c4ccccc4)CC3=O)SC21` (stereo not given) was 130 to 132 °C; that for `Cc1ccc(S(=O)(=O)N[C@@H](C)C(=O)Oc2csc(-c3ccccc3)c2)cc1` was 85 to 87 °C.
The value for `O[C@@H]1CCCN(C[C@@H]2CCN(CCc3c[nH]c4ccc(-n5cncn5)cc34)C2)[C@@H]1c1ccccc1` was 192 to 193 °C; that for `O=C(NC1N=C(c2ccccc2F)c2ccccc2NC1=O)c1ccc(Cl)cc1` (racemic) was 258 to 259 °C.
Regarding `CCOC(=O)c1cn(Cc2c(F)cccc2F)c2cc(Br)c(CBr)cc2c1=O`, the melting point fell in the range of 184 to 187 °C.
As for `O=[N+]([O-])c1cnccc1NCC(O)CO` (stereo not given), the figure is 131 to 135 °C; as for `Fc1ccccc1-c1nc(N2CCNCC2)nc2ccccc12`, 132 to 133 °C; as for `CCO[C@@H](Cc1ccc(OCCc2nc(-c3ccc(-c4ccccc4)cc3)oc2C)c2ccsc12)C(=O)O`, 163 to 164 °C.
The value for `CN1CC2CN(C(=O)N3c4ccccc4NC(=O)c4c3c(Cl)cn4C)CC2C1` (stereo not given) was over 280 °C.

The values are drawn from a melting point compilation (Tetko et al.; mined from patent text by program, amines drawn as free bases though some values may be those of a salt).
